From paper PMC13032676, “PGM1 deficiency is linked to sarcomeric and mitochondrial dysfunction in patient-derived iPSC-cardiomyocytes” (Journal of Translational Medicine, 2026)
Entries after “also recorded” stand apart in the source; their conditions may differ.

What was measured:
PGM1-deficient iCMs = test: Untargeted N-glycoproteomics; type: cell-based, human; details: low galactose in culture medium (in-house estimate 0.5 mM), no galactose-free arm
Description: Untargeted proteomics and N-glycoproteomics were performed to assess the (glyco)protein expression changes between PGM1-deficient and CTR iCMs based on previously published protocols (see supplementary materials for details).
Proteomics and N-glycoproteomics data analysis was performed as described previously. The proteomics data were searched using Sequest search engine in Proteome Discoverer 3.0 against the human Uniprot protein database. The N-glycoproteomics data using the publicly available software pGlyco version 3 with an in-built N-glycan database for identifying glycans and human Uniprot protein database for identifying peptide sequence. Two missed cleavages were allowed for both proteomics and glycoproteomics analysis. Error tolerance for precursor and fragment ions were set to 10 ppm and 0.02 Da, respectively, for proteomics and 10 ppm and 20 ppm, respectively, for glycoproteomics. […] For proteomics, quantitation of peptides across PGM1-CDG and […] was done using TMT reporter ion intensities using “reporter ion quantifier” node. To quantify glycopeptides, reporter ion quantification was performed for glycoproteomics raw files in Proteome Discoverer and glycopeptide IDs obtained from pGlyco were matched with quantitation on a scan-to-scan basis (MS/MS). […]

PGM1-CDG individuals = details: [5], [10], [11], [13] (b5), ref [7], cited from earlier work
[1] = tested on: PGM1-deficient fibroblasts; details: ref [5], [61]; cited from earlier work
From the text: First, we performed targeted tracer metabolomics studies of central carbon metabolism. Previously, decreased UDP-Hexose levels were linked to reduced glycosylation in PGM1-CDG, which improve in presence of galactose.

human PGM1 = molecular target: T1, human PGM1 (Homo sapiens, UniProt P36871); test: Microscale-thermophoresis binding of ZM peptides to PGM1; details: His6-PGM1 labeled with RED-tris-NTA, 50 nM labeled PGM1, peptide 375 mM to 11.4 nM (16-step series), 10 min in the dark, 22 °C, 40% excitation power, 40% MST power, MO.Affinity v.2.2.4
T1 construct: made in house
T1 sequence (P36871 1-562): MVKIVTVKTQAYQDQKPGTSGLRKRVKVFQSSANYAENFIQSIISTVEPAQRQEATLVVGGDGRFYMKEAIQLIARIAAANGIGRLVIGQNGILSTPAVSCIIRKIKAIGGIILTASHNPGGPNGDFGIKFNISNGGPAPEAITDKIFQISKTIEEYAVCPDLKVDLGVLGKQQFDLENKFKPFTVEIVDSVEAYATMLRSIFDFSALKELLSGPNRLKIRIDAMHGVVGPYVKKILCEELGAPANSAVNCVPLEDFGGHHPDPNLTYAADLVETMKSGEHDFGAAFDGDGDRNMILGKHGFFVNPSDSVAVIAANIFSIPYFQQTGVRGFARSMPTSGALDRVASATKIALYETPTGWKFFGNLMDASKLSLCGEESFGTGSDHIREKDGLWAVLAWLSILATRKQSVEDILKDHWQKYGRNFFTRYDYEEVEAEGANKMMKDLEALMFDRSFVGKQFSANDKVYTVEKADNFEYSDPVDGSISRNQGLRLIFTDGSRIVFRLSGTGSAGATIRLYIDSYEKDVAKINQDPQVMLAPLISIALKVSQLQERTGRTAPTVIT
From the text: For microscale-thermophoresis studies, a peptide representing the conserved Zasp motif (ZM) of ZASP/Cypher (26-mer: […]) and a corresponding peptide with the T106I mutation (underscored in sequence) were synthesized by ABI Scientific. A vector for recombinant expression of human PGM1 has been previously described. PGM1 was expressed and purified as previously described.
For binding studies, PGM1 was labeled using a commercial kit (NanoTemper Technologies, Inc.) according to the manufacturer’s specifications. Briefly, PGM1 was incubated at room temperature for 30 min with RED-tris-NTA dye, which specifically labels His6 tags, resulting in 100 nM labeled protein. The wild-type and T106I ZM peptides were serially diluted into a series of 16 PCR strip tubes and mixed 1:1 with labeled PGM1. The final concentration series of each peptide was […] to 11.4 nM, with all tubes containing 50 nM labeled PGM1. Samples were incubated in the dark for 10 min prior to use. Standard capillaries (Nanotemper MO-K022) were used to draw up the liquid and placed onto the sample tray of the Monolith NT.115 instrument (NanoTemper). Measurements were performed at 22 °C with control software at 40% excitation power and 40% MST power. Kd values were calculated using the MO. Affinity software v.2.2.4 (NanoTemper Technologies).

Row | Compound | effect on glycosylation (in words) (PGM1-deficient iCMs) | effect on cardiac (and skeletal muscle) manifestations (in words) (PGM1-CDG individuals; galactose therapy in PGM1-CDG, ref [3], [7], [18]) | effect on glycosylation and systemic features (in words) (PGM1-CDG individuals; oral galactose supplementation in PGM1-CDG, ref [1], [3], [12]) | effect on UDP-hexose levels (in words) [1] | in vitro binding affinity to PGM1 (Kd, in words) (human PGM1)
1 | O=C[C@H](O)[C@@H](O)[C@@H](O)[C@H](O)CO [galactose] | partially restores glycosylation in PGM1-deficient iCMs; also recorded: sufficient to partially restore glycosylation in PGM1-deficient iCMs | fails to ameliorate cardiac and skeletal muscle involvement; also recorded: cardiac involvement does not respond to galactose therapy; also recorded: cardiac manifestations remain largely refractory to treatment | improves systemic features; also recorded: effective correction of glycosylation defects and improvement of systemic clinical features | normalize UDP-hexose levels in PGM1-deficient fibroblasts | 
2 | LDB3 T206I mutant: corresponding peptide with the T106I mutation; dilated cardiomyopathy-associated LDB3 T206I mutant peptide (SSQPRQYNNPIGLYSAEILREMAQMY) |  |  |  |  | substantially reduced binding affinity (high µM)
3 | SSQPRQYNNPIGLYSAETLREMAQMY [wild-type ZM peptide, peptide representing the conserved Zasp motif (ZM) of ZASP/Cypher (26-mer)] |  |  |  |  | high-affinity binding (low µM)
